target: human URAT1 (Homo sapiens (Human), UniProt Q96S37); assay: Inhibition of 14C-uric acid absorption in URAT1 cell model (HEK-293T cells transfected with human URAT1); assay type: cell-based; details: HEK-293T cells transfected with human URAT1, 14C-uric acid uptake, 5 min, 37 degrees; read-out: URAT1 IC50 Activity level
Experimental: After 5 min, the buffer was removed from cell wells, added with 100 microliter of ice-cold and no chloride ions-containing HBSS buffer to gently rinse cells within wells so as to stop them from absorbing ^14C-uric acid, the rinsing was repeated 3 times in the same manner. 150 microliter of cell lysate (100 mM of NaOH) was added in each well. Cell plate was placed on a vibrating plate and vibrated for 10 min at a speed of 600 rpm such that the cells were completely lysed. The cell plate was put in a centrifuge and spun for 5 min at a speed of 1000 rpm, then 45 microliter of supernatant was sucked out from each well and transferred to 96-well plate (Isoplate-96 Microplate from PerkinElmer). In the new 96-well plate, 150 microliter of Ultima Gold XR scintillation solution was added in each well. The 96-well plate was vibrated for 10 min at a speed of 600 rpm on a vibrating plate. Finally, the 96-well plate was put in a MicroBeta Trilux Counter from PerkinElmer and was read, then IC50 values were calculated, and the results are shown in Table 1 below. Wherein

Chain of human URAT1 (Q96S37 whole entry): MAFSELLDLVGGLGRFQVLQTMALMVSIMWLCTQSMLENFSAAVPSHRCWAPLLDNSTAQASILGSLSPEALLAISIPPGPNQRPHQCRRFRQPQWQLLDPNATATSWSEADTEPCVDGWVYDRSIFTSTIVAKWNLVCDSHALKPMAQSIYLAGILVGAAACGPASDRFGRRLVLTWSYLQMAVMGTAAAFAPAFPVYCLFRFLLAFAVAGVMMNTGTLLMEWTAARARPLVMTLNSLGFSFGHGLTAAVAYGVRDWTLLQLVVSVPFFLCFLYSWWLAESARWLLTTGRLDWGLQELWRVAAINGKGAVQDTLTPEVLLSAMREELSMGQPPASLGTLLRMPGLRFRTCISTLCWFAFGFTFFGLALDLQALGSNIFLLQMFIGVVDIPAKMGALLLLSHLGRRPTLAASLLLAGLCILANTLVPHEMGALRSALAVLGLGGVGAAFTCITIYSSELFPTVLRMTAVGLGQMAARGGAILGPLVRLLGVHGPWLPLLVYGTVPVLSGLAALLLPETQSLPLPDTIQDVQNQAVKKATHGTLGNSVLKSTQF

| IC50 [nM] | SMILES |
| --- | --- |
| < 100 | N#Cc1ccc(-c2cnccc2SCC2(C(=O)O)CC2)c2ccccc12 [Compound 1, 1-(((3-(4-cyanonaphthalen-1-yl)pyridin-4-yl)thio)methyl)cyclopropanecarboxylic acid] |
| 100 to 1000 | N#Cc1ccc(-c2cnccc2SCCC(=O)O)c2ccccc12 [Compound 2] |
| < 100 | N#Cc1ccc(-c2cnccc2SCCCC(=O)O)c2ccccc12 [Compound 3] |
| < 100 | N#Cc1ccc(-c2cnccc2SCC2(CC(=O)O)CC2)c2ccccc12 [Compound 4, 2-(1-(((3-(4-cyanonaphthalen-1-yl)pyridin-4-yl)thio)methyl)cyclopropyl)acetic acid] |
| 100 to 1000 | N#Cc1ccc(-c2cnccc2SC[C@H]2C[C@@H](C(=O)O)C2)c2ccccc12 [Compound 5] |
| > 1000 | N#Cc1ccc(-c2cnccc2SC[C@H]2C[C@H](C(=O)O)C2)c2ccccc12 [Compound 6] |
| 100 to 1000 | N#Cc1ccc(-c2cnccc2S[C@H]2C[C@H](C(=O)O)C2)c2ccccc12 [Compound 7] |
| > 1000 | CC(C)(Sc1ccncc1-n1cc(C#N)c2ccccc21)C(=O)O [Compound 8, 2-((3-(3-cyano-1H-indol-1-yl)pyridin-4-yl)thio)-2-methylpropanoic acid] |
| > 1000 | CC(C)(Sc1ccncc1-n1nc(C2CC2)c2ccccc21)C(=O)O [Compound 9] |
| > 1000 | CC(C)(Sc1ccncc1-c1ncc(C#N)c2ccccc12)C(=O)O [Compound 10, 2-((3-(4-cyanoisoquinolin-1-yl)pyridin-4-yl)thio)-2-methylpropanoic acid] |
| < 100 | N#Cc1ccc(-c2ccccc2SCC2(CC(=O)O)CC2)cc1 [Compound 11, 2-(1-((2-(4-cyanophenyl)phenylthio)methyl)cyclopropyl)acetic acid] |
| 100 to 1000 | N#Cc1ccc(-c2cnccc2SCCC(F)(F)C(=O)O)c2ccccc12 [Compound 12] |
| 100 to 1000 | N#Cc1ccc(-c2cnccc2Sc2ccccc2C(=O)O)c2ccccc12 [Compound 13] |
| 100 to 1000 | N#Cc1ccc(-c2cnccc2Sc2cccc(C(=O)O)c2)c2ccccc12 [Compound 14] |
| 100 to 1000 | N#Cc1ccc(-c2cnccc2Sc2ccc(C(=O)O)cc2)c2ccccc12 [Compound 15] |
| < 100 | N#Cc1ccc(-c2cnccc2SCC2(C(=O)O)CCCC2)c2ccccc12 [Compound 16] |
| < 100 | N#Cc1ccc(-c2cnccc2SCC2(C(=O)O)CCC2)c2ccccc12 [Compound 17, 1-(((3-(4-cyanonaphthalen-1-yl)pyridin-4-yl)thio)methyl)cyclobutanecarboxylic acid] |
| > 1000 | Cc1cc(C#N)cnc1-c1cnccc1SC(C)(C)C(=O)O [Compound 19] |

| IC50 [nM] | SMILES |
| --- | --- |
| < 100 | N#Cc1ccc(-c2cnccc2SCC2(CC(=O)O)CC2)cc1 [Compound 20, 2-(1-(((3-(4-cyanophenyl)pyridin-4-yl)thio)methyl)cyclopropyl)acetic acid] |
| 100 to 1000 | O=C(O)CC1(CSc2ccncc2-c2ccc(CO)cc2)CC1 [Compound 22, 2-(1-((3-(4-(hydroxymethyl)phenyl)pyridin-4-ylthio)methyl)cyclopropyl)acetic acid] |
| > 1000 | N#Cc1ccc(-c2cnccc2NCC(=O)O)c2ccccc12 [Compound 24, 2-(3-(1-cyanonaphthalen-4-yl)pyridin-4-ylamino)acetic acid] |
| > 1000 | CC(C)(Nc1ccncc1-c1ccc(C#N)c2ccccc12)C(=O)O [Compound 25] |
| > 1000 | N#Cc1ccc(-c2cnccc2NCCC(=O)O)c2ccccc12 [Compound 26] |
| > 1000 | N#Cc1ccc(-c2cnccc2NCCCC(=O)O)c2ccccc12 [Compound 27] |
| > 1000 | N#Cc1ccc(-c2cnccc2NCC(=O)O)cc1 [Compound 28] |
| > 1000 | N#Cc1ccc(-c2cnccc2OCC2(CC(=O)O)CC2)cc1 [Compound 29, 2-(1-(((3-(4-cyanophenyl)pyridin-4-yl)oxy)methyl)cyclopropyl)acetic acid] |
| > 1000 | N#Cc1ccc(-c2cnccc2OCC2(CC(=O)O)CC2)c2ccccc12 [Compound 30] |
| > 1000 | CC(C)(Oc1ccncc1-c1ccc(C#N)cc1)C(=O)O [Compound 31, 2-(3-(4-cyanophenyl)pyridin-4-yloxy)-2-methylpropanoic acid] |
| 100 to 1000 | CC(C)(Sc1ccncc1-c1ccc(C2(O)CC2)cc1)C(=O)O [Compound 33, 2-((3-(4-(1-hydroxycyclopropyl)phenyl)pyridin-4-yl)thio)-2-methylpropanoic acid] |
| 100 to 1000 | O=C(O)CC1(CSc2ccncc2-c2ccc(C3(O)CC3)cc2)CC1 [Compound 34, 2-(1-(((3-(4-(1-hydroxycyclopropyl)phenyl)pyridin-4-yl)thio)methyl)cyclopropyl)acetic acid] |
| 100 to 1000 | CC(C)(Sc1ccncc1-c1ccc(C2(O)COC2)cc1)C(=O)O [Compound 35, 2-((3-(4-(3-hydroxyoxetan-3-yl)phenyl)pyridin-4-yl)thio)-2-methylpropanoic acid] |
| > 1000 | CC(C)(Sc1ccncc1-c1ccc(C#N)cn1)C(=O)O [Compound 37, 2-((5-cyano-[2,3′-bipyridine]-4′-yl)thio)-2-methylpropanoic acid] |
| > 1000 | N#Cc1ccc(-c2cnccc2SCC2(CC(=O)O)CC2)nc1 [Compound 38, 2-(1-(((5-cyano-2,3′-bipyridin-4′-yl)thio)methyl)cyclopropyl)acetic acid] |
| > 1000 | O=C(O)CC1(CSc2ccncc2-c2ccc(C(=O)O)cn2)CC1 [Compound 39, 4′-(((1-(carboxymethyl)cyclopropyl)methyl)thio)-[2,3′-bipyridine]-5-carboxylic acid] |
| < 100 | [2H]C([2H])([2H])C(Sc1ccncc1-c1ccc(C#N)c2ccccc12)(C(=O)O)C([2H])([2H])[2H] [Compound 40, di(methyl-d3)-2-((3-(4-cyanonaphthalen-1-yl)pyridin-4-yl)thio)acetic acid] |
| < 100 | [2H]C([2H])([2H])C(C)(Sc1ccncc1-c1ccc(C#N)c2ccccc12)C(=O)O (stereo not drawn) [Compound 41, 2-methyl-d3-2-((3-(4-cyanonaphthalen-1-yl)pyridin-4-yl)thio) propanoic acid] |

| SMILES | IC50 [nM] |
| --- | --- |
| CC(C)(CCC(=O)O)Sc1ccncc1-c1ccc(C#N)c2ccccc12 [Compound 18, 4-((3-(4-cyanonaphthalen-1-yl)pyridin-4-yl)thio)-4-methylpentanoic acid] | < 100 |
| N#Cc1ccc(-c2cnccc2CCC(=O)O)c2ccccc12 [Compound 32, 3-(3-(4-cyanonaphthalen-1-yl)pyridin-4-yl) propanoic acid] | > 1000 |
| O=C(O)CC1(CSc2ccncc2-c2ccc(C3(O)COC3)cc2)CC1 [Compound 36, 2-(1-(((3-(4-(3-hydroxyoxetan-3-yl)phenyl)pyridin-4-yl)thio)methyl)cyclopropyl)acetic acid] | > 1000 |
